Data taken from ChEMBL document CHEMBL4017494, “Structural Basis of Wee Kinases Functionality and Inactivation by Diverse Small Molecule Inhibitors” (J Med Chem, 2017).
Activity calls are given as the source filed them. The calls are words filed in the database; no cut-off is given here.

Assays:
[1] = molecular target: T1, Wee1-like protein kinase 2 (Homo sapiens, UniProt P0C1S8)
Target sequence in this assay (P0C1S8 whole entry, looked up): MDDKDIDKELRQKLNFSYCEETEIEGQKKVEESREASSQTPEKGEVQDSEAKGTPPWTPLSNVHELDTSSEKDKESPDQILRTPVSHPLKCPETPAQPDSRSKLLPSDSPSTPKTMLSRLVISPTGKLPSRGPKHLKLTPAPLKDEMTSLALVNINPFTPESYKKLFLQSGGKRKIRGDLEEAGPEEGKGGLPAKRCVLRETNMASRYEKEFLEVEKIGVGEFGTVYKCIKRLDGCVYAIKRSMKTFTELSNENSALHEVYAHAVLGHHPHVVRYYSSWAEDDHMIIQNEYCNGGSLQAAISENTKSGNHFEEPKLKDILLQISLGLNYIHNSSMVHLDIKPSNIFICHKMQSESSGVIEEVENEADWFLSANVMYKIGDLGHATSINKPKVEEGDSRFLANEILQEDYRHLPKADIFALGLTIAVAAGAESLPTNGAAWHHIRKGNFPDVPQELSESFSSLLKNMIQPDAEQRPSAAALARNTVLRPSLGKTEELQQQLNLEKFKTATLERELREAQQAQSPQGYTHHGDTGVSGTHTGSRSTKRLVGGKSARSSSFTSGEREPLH

MM1.S = experiment: Antiproliferative activity against human MM1S cells measured after 72 hrs by CellTiter-Blue assay; assay type: functional, cell-based
[2] = molecular target: T2, Membrane-associated tyrosine- and threonine-specific cdc2-inhibitory kinase (Homo sapiens, UniProt Q99640); experiment: Binding affinity to recombinant human N-terminal His6-tagged Myt1 kinase domain (75 to 361 residues) by isothermal titration calorimetry
T2 sequence (Q99640 whole entry): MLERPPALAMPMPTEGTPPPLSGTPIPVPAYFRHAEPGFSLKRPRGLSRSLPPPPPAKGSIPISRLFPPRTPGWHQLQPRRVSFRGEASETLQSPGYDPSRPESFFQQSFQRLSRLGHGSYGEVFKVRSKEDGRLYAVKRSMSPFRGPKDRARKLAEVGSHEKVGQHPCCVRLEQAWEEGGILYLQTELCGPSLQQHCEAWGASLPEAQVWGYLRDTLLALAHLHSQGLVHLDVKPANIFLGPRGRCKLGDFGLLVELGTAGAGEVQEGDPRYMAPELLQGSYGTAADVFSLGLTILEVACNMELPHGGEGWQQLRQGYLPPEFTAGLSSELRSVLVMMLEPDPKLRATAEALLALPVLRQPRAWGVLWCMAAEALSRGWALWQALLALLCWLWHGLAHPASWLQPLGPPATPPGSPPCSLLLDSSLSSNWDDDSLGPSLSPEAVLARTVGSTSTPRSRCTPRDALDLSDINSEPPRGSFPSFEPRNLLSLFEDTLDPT

MDA-MB-231 = experiment: Antiproliferative activity against human MDA-MB-231 cells measured after 72 hrs by CellTiter-Blue assay; assay type: functional, cell-based; conditions: MDA-MB-231, 72 h
HEK-293T = experiment: Antiproliferative activity against HEK293T cells measured after 72 hrs by CellTiter-Blue assay; assay type: cell-based; conditions: Homo sapiens
[3] = molecular target: T3, Membrane-associated tyrosine- and threonine-specific cdc2-inhibitory kinase (Homo sapiens) (UniProt Q99640)
T3 sequence (whole entry): T2 sequence (Q99640 whole entry)

[4] = molecular target: T1, Wee1-like protein kinase 2; experiment: Binding affinity to recombinant human N-terminal His6-tagged Wee2 kinase domain (202 to 492 residues) expressed in Escherichia coli BL21 (DE3) by isothermal titration calorimetry
Target sequence in this assay (P0C1S8 whole entry): as the sequence (P0C1S8 whole entry, looked up) above

Wee1-like protein kinase [5] = molecular target: T4, Wee1-like protein kinase (Homo sapiens, UniProt P30291)
Target sequence in this assay (P30291 whole entry, looked up, the tested form may be a part): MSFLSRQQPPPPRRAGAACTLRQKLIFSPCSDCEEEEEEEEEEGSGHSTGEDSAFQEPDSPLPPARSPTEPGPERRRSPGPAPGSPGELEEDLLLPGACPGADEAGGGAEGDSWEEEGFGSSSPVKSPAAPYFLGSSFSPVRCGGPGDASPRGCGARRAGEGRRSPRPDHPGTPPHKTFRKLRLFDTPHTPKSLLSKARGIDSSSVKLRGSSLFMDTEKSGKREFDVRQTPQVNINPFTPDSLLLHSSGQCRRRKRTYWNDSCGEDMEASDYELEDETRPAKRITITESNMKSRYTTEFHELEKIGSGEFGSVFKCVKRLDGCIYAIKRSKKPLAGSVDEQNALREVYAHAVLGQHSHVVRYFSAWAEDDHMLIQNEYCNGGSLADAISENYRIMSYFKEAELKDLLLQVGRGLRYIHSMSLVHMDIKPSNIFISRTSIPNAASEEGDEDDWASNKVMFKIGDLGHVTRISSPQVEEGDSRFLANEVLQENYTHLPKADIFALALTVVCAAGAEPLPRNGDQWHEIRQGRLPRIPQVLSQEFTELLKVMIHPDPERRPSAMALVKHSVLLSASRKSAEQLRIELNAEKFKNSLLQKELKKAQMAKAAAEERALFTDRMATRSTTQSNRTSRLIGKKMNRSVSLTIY

Wee1-like protein kinase [6] = molecular target: T4, Wee1-like protein kinase; experiment: Binding affinity to recombinant human N-terminal His6-tagged Wee1 kinase domain (291 to 575 residues) expressed in Escherichia coli BL21 (DE3) by isothermal titration calorimetry
Target sequence in this assay (P30291 whole entry, the tested form may be a part): as the sequence (P30291 whole entry, looked up, the tested form may be a part) above

Wee1-like protein kinase [7] = molecular target: T4, Wee1-like protein kinase; experiment: Inhibition of Wee1 in HEK293T cells assessed as decrease in CDK1 phosphorylation at Tyr15 at 0.1 to 10 uM after 6 hrs by Western blot method; assay type: cell-based
Target sequence in this assay (P30291 whole entry, the tested form may be a part): as the sequence (P30291 whole entry, looked up, the tested form may be a part) above

[8] = molecular target: T5, Serine/threonine-protein kinase PLK1 (Homo sapiens, UniProt P53350); conditions: 0.1 to 10 uM
T5 sequence (P53350 whole entry): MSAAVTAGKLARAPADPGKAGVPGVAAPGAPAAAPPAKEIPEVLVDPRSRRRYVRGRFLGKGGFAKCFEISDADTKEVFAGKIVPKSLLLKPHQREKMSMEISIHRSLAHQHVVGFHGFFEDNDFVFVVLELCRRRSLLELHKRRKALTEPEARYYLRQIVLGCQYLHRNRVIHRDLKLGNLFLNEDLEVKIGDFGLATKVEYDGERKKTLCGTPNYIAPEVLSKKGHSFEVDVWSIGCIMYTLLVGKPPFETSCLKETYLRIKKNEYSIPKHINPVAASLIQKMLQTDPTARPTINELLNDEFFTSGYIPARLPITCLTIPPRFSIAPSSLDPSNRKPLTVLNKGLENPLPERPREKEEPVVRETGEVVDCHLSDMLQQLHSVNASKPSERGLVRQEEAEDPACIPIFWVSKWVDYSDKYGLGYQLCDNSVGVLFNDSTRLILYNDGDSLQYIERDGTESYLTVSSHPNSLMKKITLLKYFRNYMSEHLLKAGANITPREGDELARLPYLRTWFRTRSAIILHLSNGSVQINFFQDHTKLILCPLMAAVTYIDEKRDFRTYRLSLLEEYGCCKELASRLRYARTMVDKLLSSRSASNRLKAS

[9] = Binding affinity to human FLT3 D835V-mutant assessed as dissociation constant by quantitative real-time PCR method
[10] = molecular target: T1, Wee1-like protein kinase 2; experiment: Binding affinity to recombinant human full-length N-terminal His8-tagged Wee2 (1 to 567 residues) expressed in human Expi293F cells assessed as dessociation constant by quantitative real-time PCR method; assay type: cell-based
Target sequence in this assay (P0C1S8 whole entry): as the sequence (P0C1S8 whole entry, looked up) above

Wee1-like protein kinase [11] = molecular target: T4, Wee1-like protein kinase; conditions: at 0.1 to 10 µM
Target sequence in this assay (P30291 whole entry, looked up, the tested form may be a part): as the sequence (P30291 whole entry, looked up, the tested form may be a part) above

[12] = molecular target: T5, Serine/threonine-protein kinase PLK1
Wee1-like protein kinase [13] = molecular target: T4, Wee1-like protein kinase; experiment: Inhibition of Wee1 in HEK293T cells assessed as decrease in CDK1 phosphorylation at Tyr15 at 0.01 to 10 uM after 6 hrs by Western blot method; assay type: cell-based
Target sequence in this assay (P30291 whole entry, the tested form may be a part): as the sequence (P30291 whole entry, looked up, the tested form may be a part) above

Wee1-like protein kinase [14] = molecular target: T4, Wee1-like protein kinase; conditions: 0.1 to 10 uM
Target sequence in this assay (P30291 whole entry, looked up, the tested form may be a part): as above

SMILES	ΔTm [1] [°C]	IC50 (MM1.S) [nM]	Kd ([2]; read-out: Kd) [nM]	IC50 (MDA-MB-231) [nM]	IC50 (HEK-293T) [nM]	ΔTm [3] [°C]	Kd ([4]; read-out: Kd) [nM]	ΔTm (Wee1-like protein kinase [5]) [°C]	other results
COc1cc2c(Nc3cc(Cl)c(OC)c(Cl)c3)c(C#N)cnc2cc1OCCCN1CCN(C)CC1	12.3	3900	444	1800	1600	3	4.7	10	
COc1cc(Nc2c(C#N)cnc3cc(OCCCN4CCN(C)CC4)c(OC)cc23)c(Cl)cc1Cl						3.9			
Cc1nc(Nc2ncc(C(=O)Nc3c(C)cccc3Cl)s2)cc(N2CCN(CCO)CC2)n1	9.2								
CC(=O)NCC(=O)N1[C@@H]2CC[C@H]1c1ccc(Nc3ncc(C(F)(F)F)c(NC4CCC4)n3)cc12 (single isomer, unassigned) [PF-03814735]	8.5					-0.1	128	7.9	Kd [2]: Not Active; Kd (Wee1-like protein kinase [6]; read-out: Kd): 78.7 nM
C=CCn1c(=O)c2cnc(Nc3ccc(N4CCN(C)CC4)cc3)nc2n1-c1cccc(C(C)(C)O)n1 [ADAVOSERTIB]	11.6	310		260	290	3.3	27	15.4	inhibition (INH) (Wee1-like protein kinase [7]): Active; inhibition [8]: Active; Kd [9]: 7.5 nM; Kd [10]: 3.9 nM; inhibition (Wee1-like protein kinase [11]): Active; Kd [12]: 3 nM
CC[C@@H]1C(=O)N(C)c2cnc(Nc3ccc(C(=O)NC4CCN(C)CC4)cc3OC)nc2N1C1CCCC1 [BI-2536]									inhibition (INH) (Wee1-like protein kinase [7]): Not Active
C[C@@H](Oc1cc(-n2cnc3ccc(CN4CCN(C)CC4)cc32)sc1C(N)=O)c1ccccc1C(F)(F)F [GSK-461364]		1 to 3.5		1 to 3.5	1 to 3.5				inhibition (INH) (Wee1-like protein kinase [13]): Not Active; inhibition (Wee1-like protein kinase [11]): inactive
CNC(=O)c1nn(C)c2c1C(C)(C)Cc1cnc(Nc3ccc(N4CCN(C)CC4)cc3)nc1-2 [MILCICLIB]	11.5		990			3.6	26.6	13.4	inhibition (Wee1-like protein kinase [14]): Dose-dependent effect; Kd (Wee1-like protein kinase [6]; read-out: Kd): 13.6 nM; inhibition (Wee1-like protein kinase [11]): Dose-dependent effect
CCN(CC)CCOc1ccc(Nc2ncc3cc(-c4c(Cl)cccc4Cl)c(=O)n(C)c3n2)cc1 [PD-0166285]		520	247	160	290		5		
CCOc1cc2ncc(C#N)c(Nc3ccc(F)c(Cl)c3)c2cc1NC(=O)/C=C/CN(C)C [PELITINIB]	5.6		1100			2.4	498		
CN1CCN(CCOc2cc(OC3CCOCC3)c3c(Nc4c(Cl)ccc5c4OCO5)ncnc3c2)CC1 [SARACATINIB]	0.65					2.1		1.2	Kd (Wee1-like protein kinase [6]): Not Active; Kd [4]: Not Active
